In patent publication US20230117286A1, “PHARMACEUTICAL COMPOSITION FOR PREVENTION OR TREATMENT OF NONALCOHOLIC STEATOHEPATITIS” (DONG-A ST CO., LTD., priority 2020, published 2023):

Experiments:
[1] = system: mouse model with induced nonalcoholic steatohepatitis; experiment: Plasma inflammation and fibrosis-related proteins (ELISA), NASH mice; type: in vivo, C57BL/6J mouse; details: FIG. 10
Method: (§1) A six-weeks-old male C57BL/6J mouse was fed with a special feed of high fat, high fructose, and high cholesterol (Research Diet, D09100301) for at least 27 weeks, and thus was induced to develop nonalcoholic steatohepatitis. After that, compound 1 was administered alone or in combination so that a daily dose reached 100 mg/kg/day. As the DPPIV inhibitor, evogliptin at 200 mg/kg/day or sitagliptin at 150 mg/kg/day was administered alone or in combination. As the PPAR agonist, elafibranor was administered alone or in combination so as to reach 30 mg/kg/day. As a method of administration alone or in combination, the above-described compound 1, DPPIV inhibitor, and/or PPAR agonist were prepared as a drug-diet admixture and supplied for 8 to 12 weeks.
To evaluate an effect on concentration of inflammation (CCL2, CXCl10, CXCl2, IL2 and TNFα) and fibrosis-related protein (TIMP1) in plasma, a concentration of CCL2, CXCl10, CXCl2, IL2, TNFα (MSD, K15255D-1) and TIMP1 (R&D Systems, MTM100) proteins in the plasma obtained from the mouse model was quantified by using a commercially available ELISA kit.

[2] = system: mouse model with induced nonalcoholic steatohepatitis; experiment: Galectin-3 immunostaining in liver tissues, NASH mice; type: in vivo, C57BL/6J mouse; details: administered alone, compound 1 100 mg/kg/day
Method: as §1
To compare the degree of infiltration of inflammatory cells in liver tissues, an expression level of galectin-3, an indicator of increased expression in activated macrophages, was measured through immunostaining. After that, a ratio of the area stained by the galectin-3 antibody in the unit area was calculated through image analysis so as to evaluate the medicinal efficacy of ameliorating inflammation according to the co-administration.

[3] = system: mouse model with induced nonalcoholic steatohepatitis; experiment: Relative proportion of lipid droplets in liver tissues (image analysis of HE-stained tissue), NASH mice; type: in vivo, C57BL/6J mouse; details: for relative area of lipid droplets in liver tissues / ratio of fat (lipid droplets area) in liver tissues: compound 1 100 mg/kg/day, alone or in combination; for relative area of lipid droplets in liver tissues: evogliptin 200 mg/kg/day; for ratio of fat (lipid droplets area) in liver tissues: FIG. 5, elafibranor 30 mg/kg/day
Method: as §1
For quantitative comparison of fat accumulation in liver tissues, the HE-stained tissues were subjected to an image analysis to calculate a relative proportion of lipid droplets per unit area, thereby evaluating a medicinal efficacy of co-administration.

[4] = system: human monocyte cell line (THP-1); experiment: Inflammatory cytokine secretion during differentiation of human monocytes into macrophages (PMA, then LPS); type: cell-based; details: FIG. 12; THP-1, PMA 50 ng/ml 48 hours, LPS 0.5 ng/ml four hours; compound 1 alone
Method: A human monocyte cell line (THP-1, ATCC® TIB-202™) was treated with 50 ng/ml of phorbol 12-myristate 13-acetate (PMA) for 48 hours and differentiated into macrophages, while being treated with compound 1 in combination with elafibranor as a PPAR agonist, firsocostat as an ACC inhibitor, obeticholic acid as a FXR agonist or cenicriviroc as a CCR2/5 dual antagonist, then replaced with a serum-free medium, and then treated with lipopolysaccharides (LPS; 0.5 ng/ml) for four hours, after which […], tumor necrosis factor α (TNFα; R&D Systems, DY210), and C—C motif chemokine ligand 2 (CCL2; R&D Systems, DY279), which are inflammatory cytokines secreted into the medium, were quantified with a commercially available ELISKA kit, so as to evaluate an effect on monocyte differentiation, and the results thereof are shown in FIG. 12.

[5] = system: mouse model with induced nonalcoholic steatohepatitis; experiment: Blood AST and ALT, NASH mice; type: in vivo, C57BL/6J mouse; details: FIG. 11; compound 1 100 mg/kg/day, evogliptin 200 mg/kg/day, alone or in combination; combination compared to both drugs alone
Method: as §1
The mouse model with induced nonalcoholic steatohepatitis was subjected to autopsy, after which plasma was isolated therefrom, so as to quantify aspartate aminotransferase (AST) and alanine aminotransferase (ALT) by using an automatic blood analyzer (Konelab 20i).

[6] = system: Primary human hepatic stellate cells; experiment: Pro-collagen 1a1 expression in TGFβ1-activated primary human hepatic stellate cells; type: cell-based; details: FIG. 13, TGFβ1 5 ng/ml, 18 hours; for protein expression of pro-collagen 1a1 induced by TGFβ1: each drug treated alone
Method: Primary human hepatic stellate cells (ScienCell, #5300) were stabilized for 24 hours, then cultured in a serum-free medium for 24 hours, and then treated with compound 1 in combination with elafibranor as a PPAR agonist, firsocostat as an ACC inhibitor, or obeticholic acid as a FXR agonist together with 5 ng/ml of recombinant […] (TGFβ1), after which the resulting cells were harvested in 18 hours later and an amount of pro-collagen 1a1 in total cell proteins was quantified with a commercialized ELISKA Kit (R&D Systems, DY6220), while an amount of total cell proteins was quantified and corrected by a BCA method, and the results of calculating a concentration response curve of each drug and a concentration (IC30) showing 30% inhibitory activity are shown in FIG. 13.
When compound 1 was treated in combination with the PPAR agonist or the ACC inhibitor, the CI was calculated to be 0.7 and 0.6, which was smaller than 1, thus confirming a synergistic effect. And the CI was calculated to be 1 when treated in combination with the FXR agonist, thus confirming an additive effect.

[7] = system: mouse model with induced nonalcoholic steatohepatitis; experiment: NAFLD activity score (HE histology) in mouse model with nonalcoholic steatohepatitis; type: in vivo, C57BL/6J mouse; details: administered alone, compound 1 100 mg/kg/day, compared to before treatment
Method: as §1
For a histological examination, liver tissues were isolated through biopsy and autopsy from the mouse model with induced nonalcoholic steatohepatitis prepared above before and after drug administration and were fixed in 10% formalin so as to prepare a paraffin block and obtain a 2 μm thick tissue section. After that, hematoxylin and eosin (HE) stain was performed by using an automatic stainer (Autostainer XL, Leica) in order to confirm an infiltration of inflammatory cells. A ratio of lipid droplets deposited in the stained liver tissues, a degree of infiltration of inflammatory cells and a degree of cell necrosis were expressed as NAFLD activity scores (NAS), and the results thereof are shown in FIGS. 2 and 3.

[8] = system: mouse model with induced nonalcoholic steatohepatitis; experiment: αSMA immunostaining in liver tissues, NASH mice; type: in vivo, C57BL/6J mouse; details: administered alone, compound 1 100 mg/kg/day
Method: as §1
To evaluate the effectiveness on fibrosis, an expression of a smooth muscle actin (αSMA) in a liver tissue section was measured through immunostaining so as to compare the ratio of activated stellate cells. After that, a ratio of the area stained by the αSMA antibody in the unit area was calculated through image analysis.

[9] = NASH mice, compound 1 alone 100 mg/kg/day
[10] = compound 1 100 mg/kg/day alone or combined with sitagliptin 150 mg/kg/day
[11] = FIG. 6, evogliptin 200 mg/kg/day
[12] = FIG. 7, elafibranor 30 mg/kg/day
[13] = FIG. 2, evogliptin 200 mg/kg/day, drug-diet admixture 8 to 12 weeks
[14] = FIG. 3, elafibranor 30 mg/kg/day
[15] = FIG. 8, evogliptin 200 mg/kg/day
[16] = FIG. 9, elafibranor 30 mg/kg/day

SMILES: CCc1cnc(N2CCC(CCCOc3cc(F)c(-c4noc(C(C)C)n4)c(F)c3)CC2)nc1 [compound 1, 3-(4-(3-(1-(5-ethylpyrimidin-2-yl)piperidin-4-yl)propoxy)-2,6-difluorophenyl)-5-isopropyl-1,2,4-oxadiazole]
- plasma concentration of CCL2 [1, 9]: significantly decreased
- plasma concentration of CXCl2 [1, 9]: significantly decreased
- plasma concentration of CXCl10 [1, 9]: significantly decreased
- plasma IL2 [1, 10]: tendency of decreasing
- plasma TNFα [1, 10]: tendency of decreasing
- plasma TIMP1 ([1]; compound 1 alone 100 mg/kg/day): significantly decreased
- expression of galectin-3 in liver tissues [2, 11]: significantly reduced
- expression of galectin-3 in liver tissues [2, 12]: significantly decreased
- relative area of lipid droplets in liver tissues ([3]; FIG. 4): significantly reduced
- size of lipid droplets in liver tissues ([3]; FIG. 4, compound 1 alone 100 mg/kg/day): decreased
- ratio of fat (lipid droplets area) in liver tissues [3]: significantly reduced
- CCL2 secretion [4]: decreased in a concentration-dependent manner
- IL-1β secretion [4]: decreased in a concentration-dependent manner
- TNFα secretion [4]: decreased in a concentration-dependent manner
- plasma concentration of ALT [5]: significantly reduced
- plasma concentration of AST [5]: significantly reduced
- protein expression of pro-collagen 1a1 induced by TGFβ1 [6]: inhibited in a concentration-dependent manner
- 30% inhibitory concentration (IC30), pro-collagen 1a1 ([6]; treated alone): 550 nM
- NAFLD activity score (NAS) [7, 13]: significantly improved
- NAFLD activity score (NAS) [7, 14]: significantly improved
- expression of αSMA in liver tissues [8, 15]: significantly reduced
- expression of αSMA in liver tissues [8, 16]: significantly reduced

SMILES: CSc1ccc(C(=O)/C=C/c2cc(C)c(OC(C)(C)C(=O)O)c(C)c2)cc1 [elafibranor, reference compound]
- expression of galectin-3 in liver tissues [2, 12]: no effect of significantly decreasing
- ratio of fat (lipid droplets area) in liver tissues [3]: significantly reduced
- protein expression of pro-collagen 1a1 induced by TGFβ1 [6]: relatively low response
- NAFLD activity score (NAS) [7, 14]: significantly improved
- expression of αSMA in liver tissues [8, 16]: no effect of significantly reducing

SMILES: CC(C)(C)OC[C@@H]1C(=O)NCCN1C(=O)C[C@H](N)Cc1cc(F)c(F)cc1F [evogliptin, reference compound]
- expression of galectin-3 in liver tissues [2, 11]: significantly reduced
- relative area of lipid droplets in liver tissues ([3]; FIG. 4): tendency of decreasing
- plasma concentration of ALT [5]: significantly reduced
- plasma concentration of AST [5]: significantly reduced
- NAFLD activity score (NAS) [7, 13]: insignificant
- expression of αSMA in liver tissues [8, 15]: significantly reduced

SMILES: COc1ccccc1[C@H](Cn1c(=O)n(C(C)(C)C(=O)O)c(=O)c2c(C)c(-c3ncco3)sc21)OC1CCOCC1 [firsocostat, reference compound]
- protein expression of pro-collagen 1a1 induced by TGFβ1 [6]: relatively low response
